In publication PMC5063977 (The Journal of Biological Chemistry, 2016):

Tests used:
RAMP3-CLR (AM2 receptor) = biological target: T1, RAMP3-CLR (AM2 receptor) (Homo sapiens, UniProt O60896+Q16602); assay: S. cerevisiae growth assay, GPA1/Gαq chimera, RAMP3 + CLR; format: cell-based; details: percentage of yeast strain MMY11 (lacking GPA1); 24-h; mean ± S.E., n = 6
T1 construct: FLAG; expressed in transfected cells; host or cells: HEK-293 or HEK-293S cells, transient transfection, 1:1 RAMP:CLR
Description: FIGURE 7. […] Reporter gene activity was determined following 24-h stimulation. All data are expressed as percentage of the maximum response observed in yeast strain MMY11 and are means ± S.E. of n individual data sets. D, Bar chart showing the efficacy of each ligand for each RAMP-CLR combination at the Gαq chimera determined via application of the operational model of receptor agonism (Ref. [34] and Table 1). Data were determined as statistically different from the cognate ligand for each receptor (***, p < 0.001; ****, p < 0.0001) using one-way ANOVA with Bonferroni's post-test. E, signaling bias plots were calculated as ΔΔ(τ/Ka) values on a logarithmic scale for each ligand and for each chimera G protein for the three individual RAMP-CLR complexes.
General yeast procedures were performed as described previously ([22], [24]). […] Receptor signaling was measured using the yeast growth assay as described previously ([24]). […] A fluorescein signal was detected as an increase in fluorescence (excitation wavelength = 485 nm, emission wavelength = 535 nm) as a measure of growth. Different concentrations of ligand (0.01 nM–100 μM) were assayed using 96-well plates, and fluorescence was detected using a Tecan Infinite M200 microplate reader (Tecan Ultra Evolution, Reading, UK) or a Mithras LB 940 microplate reader (Berthold Technologies, Harpenden, UK) for 20 h. […]

[1] = biological target: T2, RAMP1-CLR (CGRP receptor) (Homo sapiens, UniProt O60894+Q16602); assay: cAMP accumulation, HEK-293 cells, RAMP1 + CLR; format: cell-based; details: mean ± S.E.
T2 construct: FLAG; expressed in transfected cells; host or cells: HEK-293 or HEK-293S cells, transient transfection, 1:1 RAMP:CLR
T2 sequence (Q16602 23-461): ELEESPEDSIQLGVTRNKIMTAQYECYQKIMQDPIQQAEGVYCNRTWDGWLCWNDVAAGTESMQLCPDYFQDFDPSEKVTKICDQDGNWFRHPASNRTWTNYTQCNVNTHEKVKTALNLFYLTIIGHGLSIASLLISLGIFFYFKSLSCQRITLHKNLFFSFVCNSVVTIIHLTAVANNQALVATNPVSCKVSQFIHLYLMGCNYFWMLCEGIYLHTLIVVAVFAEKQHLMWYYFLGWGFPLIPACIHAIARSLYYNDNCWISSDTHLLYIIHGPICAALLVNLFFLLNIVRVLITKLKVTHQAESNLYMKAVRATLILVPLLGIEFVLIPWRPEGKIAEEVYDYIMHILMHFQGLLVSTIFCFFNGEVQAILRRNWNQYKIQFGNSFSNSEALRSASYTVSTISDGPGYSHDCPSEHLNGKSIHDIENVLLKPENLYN
T2 sequence (O60894 27-148): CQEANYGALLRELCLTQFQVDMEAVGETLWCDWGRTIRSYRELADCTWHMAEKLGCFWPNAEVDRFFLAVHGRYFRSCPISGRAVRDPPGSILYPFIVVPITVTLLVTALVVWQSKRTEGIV
Description: HEK-293 cells were transfected with FuGENE 6 (Roche Applied Science) in accordance with the manufacturer's instructions using a 1:3 (w:v) DNA:FuGENE ratio and a 1:1 ratio of RAMP to CLR. […] The transfected cell lines were grown for 24–48 h prior to assaying.
The transfected HEK-293 cells were washed in PBS, resuspended in stimulation buffer (PBS containing 0.1% BSA and 0.5 mM IBMX), and seeded at 2000 cells/well in 384-well white Optiplates. Ligands were added in the range of 1 pM to 1 mM, and cAMP accumulation was measured after 30 min of stimulation using a LANCE® cAMP detection kit (PerkinElmer Life Sciences). […] Plates were read using a Mithras LB 940 multimode microplate reader (Berthold Technologies). […] Values were converted to concentration using a cAMP standard curve performed in parallel.
Data analysis for cAMP assays was performed in GraphPad Prism 6.0f (San Diego, CA). Data were fitted to obtain concentration-response curves using either the three-parameter logistic equation (for pEC50 values) or the operational model for partial agonism ([34]) to obtain values of efficacy (log τ) and the equilibrium dissociation constant (log Ka). These values were then used to quantify signaling bias as change in log (τ/Ka) relative to the natural cognate ligand for the respective receptor ([41]). […] Statistical differences were analyzed using one-way ANOVA or Student's t test as appropriate with post hoc Bonferroni's or Dunnett's multiple comparisons, and p < 0.05 was considered significant. […] For RT-PCR, normalization to the internal standard GAPDH was performed to reduce variance and enable a comparison between different cell lines. To quantitate the ligand-dependent response in the yeast system, a strain lacking GPA1 (MMY11), grown in rich medium, was used as a standard ([72]). As GPA1 is not present in this strain, the Gβγ subunits are unregulated and free to signal, allowing us to determine the maximal response of our system. […] For the mammalian cell-based assays, data analysis was carried out as for the yeast curves. […]

T1 sequence (Q16602 23-461): as the sequence (Q16602 23-461) above
T1 sequence (O60896 24-148): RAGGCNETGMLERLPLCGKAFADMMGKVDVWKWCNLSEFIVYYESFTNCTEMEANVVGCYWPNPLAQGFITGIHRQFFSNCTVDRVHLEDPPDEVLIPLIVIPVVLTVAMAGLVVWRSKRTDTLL

Emax (RAMP3-CLR (AM2 receptor)): 25.6 ± 2%
Emax ([1]; HEK293, PTX treated (200 ng/ml, 16 h), percentage of maximal cAMP with 100 μM forskolin in presence of PTX, n = 6 (Table 3)): 72.2 ± 1.7%
Emax ([1]; HEK293, percentage of maximal cAMP with 100 μM forskolin, HEK-293, 30 min, n = 11 (Table 2)): 45.2 ± 3.7%
Emax ([1]; HEK293, untreated, percentage of maximal cAMP with 100 μM forskolin in presence of PTX, n = 9 (Table 3)): 48.1 ± 2.5%
Structure (SMILES): CC[C@H](C)[C@H](NC(=O)[C@H](CCC(N)=O)NC(=O)[C@H](Cc1c[nH]cn1)NC(=O)[C@H](C)NC(=O)[C@H](CC(C)C)NC(=O)[C@H](CCCCN)NC(=O)[C@H](CCC(N)=O)NC(=O)[C@@H](NC(=O)[C@@H](NC(=O)[C@@H]1CSSC[C@H](NC(=O)CNC(=O)[C@H](Cc2ccccc2)NC(=O)[C@H](CO)NC(=O)[C@H](CCCNC(=N)N)NC(=O)[C@H](CC(C)C)NC(=O)CNC(=O)[C@H](CCC(N)=O)NC(=O)[C@H](Cc2ccccc2)NC(=O)[C@H](CC(N)=O)NC(=O)[C@H](CC(N)=O)NC(=O)[C@H](CCSC)NC(=O)[C@H](CO)NC(=O)[C@H](CCC(N)=O)NC(=O)[C@H](CCCNC(=N)N)NC(=O)[C@@H](N)Cc2ccc(O)cc2)C(=O)N[C@@H](CCCNC(=N)N)C(=O)N[C@@H](Cc2ccccc2)C(=O)NCC(=O)N[C@@H]([C@@H](C)O)C(=O)N1)[C@@H](C)O)C(C)C)C(=O)N[C@@H](Cc1ccc(O)cc1)C(=O)N[C@@H](CCC(N)=O)C(=O)N[C@@H](Cc1ccccc1)C(=O)N[C@H](C(=O)N[C@@H](CC(=O)O)C(=O)N[C@@H](CCCCN)C(=O)N[C@@H](CC(=O)O)C(=O)N[C@@H](CCCCN)C(=O)N[C@@H](CC(=O)O)C(=O)N[C@@H](CC(N)=O)C(=O)N[C@H](C(=O)N[C@@H](C)C(=O)N1CCC[C@H]1C(=O)N[C@@H](CCCNC(=N)N)C(=O)N[C@@H](CO)C(=O)N[C@@H](CCCCN)C(=O)N[C@H](C(=O)N[C@@H](CO)C(=O)N1CCC[C@H]1C(=O)N[C@@H](CCC(N)=O)C(=O)NCC(=O)N[C@@H](Cc1ccc(O)cc1)C(N)=O)[C@@H](C)CC)C(C)C)[C@@H](C)O [AM, adrenomedullin]
